One data set deals with rgRSV224 virus. Description: Antiviral activity: inhibition of rgRSV224 (GFP-expressing RSV) replication in HeLa cells. Type of data set: cell-based, respiratory syncytial virus. The settings on record: human respiratory syncytial virus, HeLa, 72 h, read-out: RSV-wt_pEC50, rgRSV224 (MOI=0.02) in HeLa cells, GFP expression three days post-virus exposure. A digest of the protocol:
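HeLa cells infected with GFP-expressing rgRSV224 at MOI 0.02 alongside 4-fold compound dilutions in duplicate (0.5% DMSO). Incubated 3 days at 37 °C; EC50 taken as 50% inhibition of GFP expression by laser microscopy. CC50 measured in parallel uninfected cells by ATP content after 3 days; SI = CC50/EC50.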

Turning to `CNC(=O)OC1CC2(C1)C(=O)N(Cc1nc3cc(Cl)ccc3n1CCCS(C)(=O)=O)c1ccccc12` [Compound 104, (1R,3R)-1′-((5-chloro-1-(3-(methylsulfonyl)propyl)-1H-benzo[d]imidazol-2-yl)methyl)-2′-oxospiro[cyclobutane-1,3′-indoline]-3-yl methylcarbamate], the melting point worked out at 204.17 °C. For the same compound, in the data set with rgRSV224 virus, the EC50 was 0.0229 nM.

As to `CS(=O)(=O)N1CCC2(CC1)C(=O)N(Cc1cc3cc(Cl)ccc3n1CCCC#N)c1cnccc12` [Compound 105, 4-(5-Chloro-2-{[1-(methylsulfonyl)-2′-oxospiro[piperidine-4,3′-pyrrolo[2,3-c]pyridin]-1′(2′H)-yl]methyl}-1H-indol-1-yl)butanenitrile], the melting point amounted to 145.3 °C. The EC50 with rgRSV224 virus was 0.0832 nM.

With `CC(=O)NS(=O)(=O)N1CCC2(CC1)C(=O)N(Cc1cc3cc(Cl)ccc3n1CCCCF)c1cnccc12` [Compound 114, N-[(1′-{[5-Chloro-1-(4-fluorobutyl)-1H-indol-2-yl]methyl}-2′-oxo-1′,2′-dihydro-1H-spiro[piperidine-4,3′-pyrrolo[2,3-c]-pyridin]-1-yl)sulfonyl]acetamide], the melting point was 236.92 °C. For the same compound, in the data set on rgRSV224 virus, the EC50 was 0.427 nM.

With `CC(=O)NS(=O)(=O)N1CC2(C1)C(=O)N(Cc1cc3cc(Cl)ccc3n1CCCC#N)c1ccccc12` [Compound 117, N-[(1′-{[5-Chloro-1-(3-cyanopropyl)-1H-indol-2-yl]methyl}-2′-oxo-1′,2′-dihydro-1H-spiro[azetidine-3,3′-indol]-1-yl)sulfonyl]acetamide], the melting point came to 182.85 °C. Further, the EC50 with rgRSV224 virus was 10 nM.

The compound `CC(C)NC(=O)N[C@H]1C[C@]2(C1)C(=O)N(Cc1nc3cc(Cl)ccc3n1CCCC#N)c1ccccc12` [Compound 143, 1-((1s,3s)-1′-((5-chloro-1-(3-cyanopropyl)-1H-benzo[d]imidazol-2-yl)methyl)-2′-oxospiro[cyclobutane-1,3′-indolin]-3-yl)-3-isopropylurea] had a melting point of 242.49 °C. Also, the EC50 with rgRSV224 virus is 3.31 nM.

`CC(C)NC(=O)N[C@H]1C[C@@]2(C1)C(=O)N(Cc1nc3cc(Cl)ccc3n1CCCC#N)c1ccccc12` [Compound 144, 1-((1r,3r)-1′-((5-chloro-1-(3-cyanopropyl)-1H-benzo[d]imidazol-2-yl)methyl)-2′-oxospiro[cyclobutane-1,3′-indolin]-3-yl)-3-isopropylurea] showed a melting point of 219.9 °C. Besides, in the data set with rgRSV224 virus, the EC50 is 0.229 nM.

`CC(=O)N[C@H]1C[C@]2(C1)C(=O)N(Cc1nc3cc(Cl)ccc3n1CCCC#N)c1ccccc12` [Compound 145, N-((1s,3s)-1′-((5-chloro-1-(3-cyanopropyl)-1H-benzo[d]imidazol-2-yl)methyl)-2′-oxospiro[cyclobutane-1,3′-indolin]-3-yl)acetamide] showed a melting point of 250.91 °C. The EC50 in the data set with rgRSV224 virus is 0.302 nM.

Compound `CC(=O)N[C@H]1C[C@@]2(C1)C(=O)N(Cc1nc3cc(Cl)ccc3n1CCCC#N)c1ccccc12` [Compound 146, N-((1r,3r)-1′-((5-chloro-1-(3-cyanopropyl)-1H-benzo[d]imidazol-2-yl)methyl)-2′-oxospiro[cyclobutane-1,3′-indolin]-3-yl)acetamide] came in with a melting point of 194.77 °C. Besides, the EC50 in the data set with rgRSV224 virus was 0.501 nM.

`N#CCCCn1c(CN2C(=O)C3(CCN(C(=O)OCCO)CC3)c3ccncc32)cc2cc(Cl)ccc21` [Compound 147, 2-Hydroxyethyl 1′-{[5-chloro-1-(3-cyanopropyl)-1H-indol-2-yl]methyl}-2′-oxo-1′,2′-dihydro-1H-spiro[piperidine-4,3′-pyrrolo[2,3-c]pyridine]-1-carboxylate] came in with a melting point of 144.55 °C. Moreover, in the data set on rgRSV224 virus, the EC50 is 0.055 nM.

With `CC(C)(O)C(=O)N1CCC2(CC1)C(=O)N(Cc1nc3cc(Cl)ccc3n1CCCCO)c1cnccc12` [Compound 164, 1′-{[5-Chloro-1-(4-hydroxybutyl)-1H-benzimidazol-2-yl]methyl}-1-(2-hydroxy-2-methylpropanoyl)spiro[piperidine-4,3′-pyrrolo[2,3-c]pyridin]-2′(1′H)-one], the melting point turned out to be 191.87 °C. Besides, the EC50 in the data set with rgRSV224 virus is 0.126 nM.

As for `CC(C)(O)C(=O)N1CC2(C1)C(=O)N(Cc1cc3cc(Cl)ccc3n1CCCCO)c1ccccc12` [Compound 166, 1′-{[5-Chloro-1-(4-hydroxybutyl)-1H-indol-2-yl]methyl}-1-(2-hydroxy-2-methylpropanoyl)spiro[azetidine-3,3′-indol]-2′(1′H)-one], the melting point amounted to 157.11 °C. Also, the EC50 in the data set with rgRSV224 virus is 0.537 nM.

The compound `CC(C)(O)C(=O)N1CCC2(CC1)C(=O)N(Cc1nc3cc(Cl)ccc3n1CCCCF)c1cnccc12` [Compound 169, 1′-{[5-Chloro-1-(4-fluorobutyl)-1H-benzimidazol-2-yl]methyl}-1-(2-hydroxy-2-methylpropanoyl)spiro[piperidine-4,3′-pyrrolo[2,3-c]pyridin]-2′(1′H)-one] gave a melting point of 222.72 °C. For the same compound, the EC50 in the data set with rgRSV224 virus is 0.0275 nM.

The compound `CC(=O)NS(=O)(=O)N1CCC2(CC1)C(=O)N(Cc1cc3cc(Cl)ccc3n1CCCC#N)c1cnccc12` [Compound 172, N-[(1′-{[5-Chloro-1-(3-cyanopropyl)-1H-indol-2-yl]methyl}-2′-oxo-1′,2′-dihydro-1H-spiro[piperidine-4,3′-pyrrolo[2,3-c]pyridin]-1-yl)sulfonyl]acetamide] yielded a melting point of 230.52 °C. Further, in the data set with rgRSV224 virus, the EC50 was 0.0661 nM.

The compound `N#CCCCn1c(CN2c3ccccc3[C@]3(C[C@@H](O)C3)C2=O)nc2cc(Cl)ccc21` [Compound 176, 4-(5-chloro-2-(((1r,3r)-3-hydroxy-2′-oxospiro[cyclobutane-1,3′-indolin]-1′-yl)methyl)-1H-benzo[d]imidazol-1-yl)butanenitrile] came in with a melting point of 217.25 °C. The EC50 in the data set with rgRSV224 virus is 0.363 nM.

In turn, `COC(=O)N1CCC2(CC1)C(=O)N(Cc1nc3cc(Cl)ccc3n1CCCCF)c1cnccc12` [Compound 178, Methyl 1′-{[5-chloro-1-(4-fluorobutyl)-1H-benzimidazol-2-yl]methyl}-2′-oxo-1′,2′-dihydro-1H-spiro[piperidine-4,3′-pyrrolo[2,3-c]pyridine]-1-carboxylate] came in with a melting point of 182.68 °C. For the same compound, the EC50 with rgRSV224 virus was 0.0288 nM.

On to `CC(C)OC(=O)N1CCC2(CC1)C(=O)N(Cc1nc3cc(Cl)ccc3n1CCCCF)c1cnccc12` [Compound 179, 1-Methylethyl 1′-{[5-chloro-1-(4-fluorobutyl)-1H-benzimidazol-2-yl]methyl}-2′-oxo-1′,2′-dihydro-1H-spiro[piperidine-4,3′-pyrrool[2,3-c]pyridine]-1-carboxylate], for which the melting point amounted to 198.92 °C. For the same compound, in the data set with rgRSV224 virus, the EC50 was 0.0437 nM.

`N#CCCCn1c(CN2C(=O)C3(CN(S(=O)(=O)C4CC4)C3)c3ccccc32)nc2cc(Cl)ccc21` [Compound 180, 4-(5-Chloro-2-{[1-(cyclopropylsulfonyl)-2′-oxospiro[azetidine-3,3′-indol]-1′(2′H)-yl]methyl}-1H-benzimidazol-1-yl)butanenitrile] yielded a melting point of 190.42 °C. The EC50 with rgRSV224 virus is 0.117 nM.

The compound `N#CCCCn1c(CN2C(=O)C3(CCN(C(=O)C(O)(C(F)(F)F)C(F)(F)F)CC3)c3ccncc32)nc2cc(Cl)ccc21` [Compound 181, 4-[5-Chloro-2-({2′-oxo-1-[3,3,3-trifluoro-2-hydroxy-2-(trifluoromethyl)propanoyl]spiro[piperidine-4,3′-pyrrolo[2,3-c]pyridin]-1′(2′H)-yl}methyl)-1H-benzimidazol-1-yl]butanenitrile] gave a melting point of 240.41 °C. Moreover, the EC50 in the data set with rgRSV224 virus was 0.251 nM.

Turning to `CC(C)(O)C(=O)N1CC2(C1)C(=O)N(Cc1nc3cc(Cl)ccc3n1CCCCF)c1ccccc12` [Compound 183, 1′-{[5-Chloro-1-(4-fluorobutyl)-1H-benzimidazol-2-yl]methyl}-1-(2-hydroxy-2-methylpropanoyl)spiro[azetidine-3,3′-indol]-2′(1′H)-one], the melting point came to 219.71 °C. For the same compound, the EC50 with rgRSV224 virus is 0.0759 nM.

Values taken from patent US9617289B2, “RSV antiviral compounds” (JANSSEN R&D IRELAND, priority 2012, dated 2017).
